Test results reported in patent US12564595B2, “Prophylactic and therapeutic pharmaceutical agent for HIV infectious diseases characterized by comprising combination of integrase inhibitor and anti-HIV agent” (Shionogi & Co., Ltd., priority 2019, dated 2026).
pEC50: −log10 of the molar value.

What was measured:
[1] = tested on: HIV mutant strain 2 (E92Q/E138T/G140S/Q148H); test: Test Example 2: resistance evaluation test (HeLa-CD4 reporter), mutant strain 2; assay type: cell-based; settings: FC=EC50 of mutant strain/EC50 of wild strain; HeLa-CD4 cells
In short: (§1)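 HeLa-CD4 reporter cells were infected with wild-type or mutant HIV in the presence of serially diluted compound and cultured 3 days. Cell lysates were read by chemiluminescent reporter assay after about 1 h at room temperature. Fold change was calculated as mutant EC50 divided by wild-type EC50.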

[2] = tested on: HIV mutant strain 1 (E138K/G140S/Q148H/N155H); test: Test Example 2: resistance evaluation test (HeLa-CD4 reporter), mutant strain 1; assay type: cell-based; settings: FC=EC50 of mutant strain/EC50 of wild strain; HeLa-CD4 cells
In short: as §1

[3] = tested on: HIV; test: Test Example 3: test for confirmation of combined use effect; assay type: cell-based; parameters: key to D value (dosewise additivity value): <-0.1 synergy, -0.1 to 0.1 additive, >0.1 antagonism
[4] = tested on: HIV; test: Test Example 16: anti-HIV activity in the presence of human serum protein (MT-4 cells); assay type: cell-based; settings: 100% extrapolation value, PS=4×(EC50 with 25% human serum protein/EC50 with no human serum protein)
Procedure: A stage dilution series of the test samples was created on a 96-well microplate (50 μL/well).
Aliquots of human serum protein solution (human serum protein concentration 50%) were dispensed in the amount of 100 μL/well to a 96-well microplate containing the test sample. This was then left to stand for 1 h at room temperature. Culture medium in the amount of 100 μL/well in each case was dispensed to a serum-free plate for control purposes. Aliquots of MT-4 cells in the amount of 3.0×10^5/well and HIV virus liquid in the amount of 3 μL/well were mixed for the necessary number of wells and reacted for 1 h at 37° C. After the reaction, the cell suspension was centrifuged and the supernatant discarded; aliquots of infected cells were distributed to culture medium in the amount of 50 μL/well and were dispensed in the amount of 50 μL/well in each case into the wells of a 96-well microplate containing test samples and human serum protein (human serum protein concentration: 25%). Mixing was performed using a plate mixer and culturing was performed for four days with a CO2 incubator. […] MTT(3-(4, 5-dimethylthiazol-2-yl)-2, 5-diphenyltetrazolium bromide) liquid in the amount of 30 μL was dispensed to each of the wells. The reaction was performed for 1 h in a CO2 incubator. 150 μL supernatant was removed to avoid aspirating cells from the wells. 150 μL of cell solution was added and thorough mixing was performed, using a plate mixer, until all the cells were dissolved. The optical absorbance on the mixed plate was measured at two wavelengths, namely, 560 nm/690 nm, using a microplate reader.
Next, the potency shift (PS) was calculated, using the following formula. The PS is the value of the human serum protein concentration, extrapolated to 100%.

[5] = tested on: HIV; test: microbe, parasite or virus in culture; assay type: cell-based; settings: Human immunodeficiency virus 1, MT4, 96 h, read-out: EC50 (50% HIV inhibition concentration), MT-4 cells, HIV, cultured four days, MTT; compounds of formula (I) of (A)
In short: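 MT-4 cells infected with HIV in the presence of serially diluted test samples and cultured four days at CO2 incubator conditions. Cell viability measured by MTT reduction (1 h), solubilised formazan read at 560/690 nm.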

[6] = target: T1, voltage-gated sodium channel (Nav 1.5 channel) (Homo sapiens, UniProt Q14524); test: Test Example 14: Nav test (patch clamp, HEK cells); assay type: cell-based; settings: HEK cells expressing Nav 1.5 channel, whole cell patch clamp
T1 construct: expressed in transfected cells; host or cells: HEK cells
Procedure: Using a fully automatic patch clamp system (QPatch: Sophion Bioscience A/S), by the whole cell patch clamp method, the cells were maintained at a membrane potential of −100 mV and the induced INa when a −10 mV depolarization stimulus was applied for 20 msec was recorded. […] From the INa obtained, using analysis software (QPatch: Sophion Bioscience A/S), the absolute value of the maximum peak current was measured, with reference to the current value at the maintained membrane potential.

[7] = Test Example 8: metabolic stability test; assay type: in vitro ADME, human; settings: pooled human liver microsomes, 30 min at 37° C., NADPH, compound concentration 0.5 μmol/L
In short: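 Pooled human liver microsomes (0.5 mg protein/mL, Tris-HCl pH 7.4) incubated with compound and 1 mmol/L NADPH for 0 or 30 min at 37° C. After methanol/acetonitrile quench, remaining parent was quantified by LC/MS/MS or SPE/MS and expressed as % of the 0 min amount.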

[8] = tested on: HIV mutant strain 3 (E92Q/E138K/G140S/Q148H); test: Test Example 2: resistance evaluation test (HeLa-CD4 reporter), mutant strain 3; assay type: cell-based; settings: FC=EC50 of mutant strain/EC50 of wild strain; HeLa-CD4 cells
Procedure: (§2) A serial dilution series of test samples in 96-well microplates was prepared (50 […]).
(§3) 2.5×10^4/mL of HeLa-CD4 cell suspension was dispensed into each of the microplates containing test sample, in the amount of 100 μL/well, and HIV virus liquid (wild strain and mutant strain) was then dispensed in an amount of 50 μL/well. Mixing was performed using a plate mixer and culturing was performed for three days in a CO2 incubator. After removing the cultured supernatant of each well by suction, 100 μL of the cell solution buffer in the reporter measurement kit was dispensed thereto, and freezing was conducted in a refrigerator (−80° C.). The plates frozen in the refrigerator were defrosted at room temperature, then mixed using a plate mixer and centrifuged for 5 min at 1,200 rpm. The supernatant of each well was divided to 96-well microplates (BLACK) in the amount of 20 μL in each case. The chemiluminescence reagent in the reporter assay kit was dispensed in the amount of 100 μL in each case, and, after reacting for about 1 h at room temperature, the amount of luminescence was measured using a MicroBeta TRILUX.
(§4) The degree of resistance (fold change (FC)) of each mutant strain was also calculated using the following formula. FC=EC50 of mutant strain/EC50 of wild strain (Results)

[9] = tested on: HIV mutant strain 4 (T97A/E138T/G140S/Q148H); test: Test Example 2: resistance evaluation test (HeLa-CD4 reporter), mutant strain 4; assay type: cell-based; settings: FC=EC50 of mutant strain/EC50 of wild strain; HeLa-CD4 cells
Procedure: as §2, §3, §4

[10] = combination with compound (B) Compound C (CAI)
[11] = combination with compound (B) GS-6207 (CAI)
[12] = combination with compound (B) GSK2838232 (maturation inhibitor)
[13] = combination with compound (B) I′-189 (INLAI)
[14] = combination with compound (B) Ramipzin (3TC) (polymerase inhibitor)
[15] = combination with compound (B) VM-1500 (polymerase inhibitor)

T1 sequence (Q14524 whole entry): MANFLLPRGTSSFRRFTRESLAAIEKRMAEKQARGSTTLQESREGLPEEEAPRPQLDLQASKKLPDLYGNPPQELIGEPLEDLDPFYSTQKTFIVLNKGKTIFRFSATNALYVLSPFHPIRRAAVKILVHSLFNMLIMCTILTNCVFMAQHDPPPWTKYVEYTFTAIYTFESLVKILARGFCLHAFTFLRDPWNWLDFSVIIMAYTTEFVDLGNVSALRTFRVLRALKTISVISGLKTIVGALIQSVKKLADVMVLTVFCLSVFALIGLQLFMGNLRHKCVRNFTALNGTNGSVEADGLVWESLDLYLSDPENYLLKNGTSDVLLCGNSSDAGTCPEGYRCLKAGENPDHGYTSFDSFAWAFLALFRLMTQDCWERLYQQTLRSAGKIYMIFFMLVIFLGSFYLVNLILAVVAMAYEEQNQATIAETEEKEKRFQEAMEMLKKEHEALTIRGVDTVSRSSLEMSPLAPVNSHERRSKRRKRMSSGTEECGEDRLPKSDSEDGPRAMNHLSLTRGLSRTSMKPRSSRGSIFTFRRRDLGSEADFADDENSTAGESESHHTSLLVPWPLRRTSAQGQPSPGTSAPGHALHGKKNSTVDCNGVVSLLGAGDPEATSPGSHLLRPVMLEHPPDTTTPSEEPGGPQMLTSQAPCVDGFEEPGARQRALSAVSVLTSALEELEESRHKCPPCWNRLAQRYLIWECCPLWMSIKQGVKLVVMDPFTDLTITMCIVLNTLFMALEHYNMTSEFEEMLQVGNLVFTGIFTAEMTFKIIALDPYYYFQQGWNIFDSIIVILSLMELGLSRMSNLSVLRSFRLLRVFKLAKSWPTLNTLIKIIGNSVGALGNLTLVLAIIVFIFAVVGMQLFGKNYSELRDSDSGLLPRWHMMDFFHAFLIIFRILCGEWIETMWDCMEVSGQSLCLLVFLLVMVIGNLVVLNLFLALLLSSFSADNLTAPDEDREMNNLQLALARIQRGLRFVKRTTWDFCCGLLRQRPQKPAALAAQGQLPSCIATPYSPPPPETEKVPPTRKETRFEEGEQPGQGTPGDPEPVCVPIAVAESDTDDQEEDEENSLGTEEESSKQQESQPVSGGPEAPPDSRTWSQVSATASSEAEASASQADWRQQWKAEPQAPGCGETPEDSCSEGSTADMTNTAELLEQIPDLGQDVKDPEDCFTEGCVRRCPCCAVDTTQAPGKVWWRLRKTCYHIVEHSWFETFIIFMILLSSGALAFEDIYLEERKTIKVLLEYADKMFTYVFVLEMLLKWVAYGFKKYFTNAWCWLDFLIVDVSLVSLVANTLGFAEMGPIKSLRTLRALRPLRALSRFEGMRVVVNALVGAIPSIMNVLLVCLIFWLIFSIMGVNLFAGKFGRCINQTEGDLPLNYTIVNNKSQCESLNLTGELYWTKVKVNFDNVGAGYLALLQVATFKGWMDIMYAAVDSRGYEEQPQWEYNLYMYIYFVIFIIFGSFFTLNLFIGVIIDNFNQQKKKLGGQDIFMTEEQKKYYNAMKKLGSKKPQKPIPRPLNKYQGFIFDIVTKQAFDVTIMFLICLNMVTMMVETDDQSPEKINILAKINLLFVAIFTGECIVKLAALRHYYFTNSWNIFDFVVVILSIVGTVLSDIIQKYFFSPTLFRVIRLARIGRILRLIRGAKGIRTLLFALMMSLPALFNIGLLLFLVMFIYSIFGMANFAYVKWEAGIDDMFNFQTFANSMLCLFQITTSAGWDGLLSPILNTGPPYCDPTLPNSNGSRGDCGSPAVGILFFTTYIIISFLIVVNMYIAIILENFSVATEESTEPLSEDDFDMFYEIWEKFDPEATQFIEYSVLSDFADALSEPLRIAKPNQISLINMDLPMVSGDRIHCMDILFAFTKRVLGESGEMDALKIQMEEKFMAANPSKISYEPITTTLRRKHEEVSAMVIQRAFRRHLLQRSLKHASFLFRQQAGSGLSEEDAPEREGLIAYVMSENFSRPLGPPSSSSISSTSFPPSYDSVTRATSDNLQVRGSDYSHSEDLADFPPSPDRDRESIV

CCN1C(=O)c2c(O)c(=O)c(-c3nnc(Cc4c(F)cc(F)cc4F)s3)cn2N2CCCC[C@@H]12 [Compound I-007]
FC in respect of mutant strain 2 (E92Q/E138T/G140S/Q148H) [1]: 6.9
FC in respect of mutant strain 1 (E138K/G140S/Q148H/N155H) [2]: 3.8
D value (dosewise additivity value) [3, 10]: 0.059
effect of combined use [3, 10]: Additive (−0.1 to −0.1: additive synergetic effect)
D value (dosewise additivity value) ([3]; combination with compound (B) Darunavin (PI)): −0.096
effect of combined use ([3]; combination with compound (B) Darunavir (PI)): Additive (−0.1 to −0.1: additive synergetic effect)
D value (dosewise additivity value) [3, 11]: −0.040
effect of combined use [3, 11]: Additive (−0.1 to −0.1: additive synergetic effect)
D value (dosewise additivity value) [3, 12]: 0.017
effect of combined use [3, 12]: Additive (−0.1 to −0.1: additive synergetic effect)
D value (dosewise additivity value) [3, 13]: 0.053
effect of combined use [3, 13]: Additive (−0.1 to −0.1: additive synergetic effect)
effect of combined use ([3]; combination with compound (B) Lilpiperine (polymerase inhibitor)): Additive (−0.1 to −0.1: additive synergetic effect)
D value (dosewise additivity value) [3, 14]: −0.231
effect of combined use [3, 14]: Strong synergy (−0.5 to −0.2: strong synergetic effect)
D value (dosewise additivity value) ([3]; combination with compound (B) Rilpivirine (polymerase inhibitor)): −0.054
D value (dosewise additivity value) [3, 15]: −0.097
effect of combined use [3, 15]: Additive (−0.1 to −0.1: additive synergetic effect)
potency shift (PS) in the presence of human serum protein [4]: 116
pEC50 [5]: 8.80
ratio of maximum peak current (INa) on application of compound to that on application of medium [6]: 103%
Remaining percentage [7]: 97.7%

CN1C(=O)c2c(O)c(=O)c(C(=O)NCc3ccc(F)cc3F)cn2N2CCCC[C@@H]12 [Compound I-032]
FC in respect of mutant strain 2 (E92Q/E138T/G140S/Q148H) [1]: 18
FC in respect of mutant strain 3 (E92Q/E138K/G140S/Q148H) [8]: Compound I-032: 7.7
FC in respect of mutant strain 1 (E138K/G140S/Q148H/N155H) [2]: 51
FC in respect of mutant strain 4 (T97A/E138T/G140S/Q148H) [9]: compound I-032: 10
ratio of maximum peak current (INa) on application of compound to that on application of medium [6]: 92.1%
Remaining percentage [7]: 103%
